Assay [1] has as its target T1, IDO1 (Homo sapiens, UniProt P14902). As to the kind of experiment: IDO1 Cellular Assay in HeLa Cells Stimulated with IFNγ. The assay is classed as cell-based. Conditions: IFNγ 100 ng/mL, 300 uM L-tryptophan, about 48 hours incubation, fluorescence readout, read-out: IDO1 HeLa Cell Assay, IC50. As for the experimental part:
IDO1 Cellular Assay in HeLa Cells Stimulated with IFNγ
HeLa cells were cultured in complete HeLa culture medium (90% EMEM, 10% heat-inactivated fetal bovine serum) and expanded to about 1×10^9 cells. The cells were then collected and frozen down at 1×10^7 cells/vial in 1 mL frozen medium (90% complete HeLa culture medium, 10% DMSO).
Compounds to be tested were serially diluted in ten 3-fold steps in DMSO starting from 10 mM DMSO stocks in Echo low volume plate(s).
Frozen HeLa cells were thawed and transferred into HeLa assay medium (99% complete HeLa culture medium, 1% Pen/Strep) with 20 mL medium/vial of cells. The cells were spun down at 250 g in a table top centrifuge for 5 min and suspended in same volume of HeLa assay medium. The cells were then counted and adjusted to a density of 2×10^5 cells/mL in HeLa assay medium. Sterile L-tryptophan were added to the cells with final concentration of 300 uM L-tryptophan. A small aliquot (2 mL/plate) of HeLa cells were set aside and were not treated with IFNγ, to serve as the Max-E control.
HeLa cells with and without IFNγ were dispensed to the respective wells of 384-well assay plates containing the compounds. The plates were incubated for about 48 hours at a 37° C., 5% CO2 incubator. Afterwards, 12 μL of 0.5 M methyl isonipecotate in dimethyl sulfoxide were added into each well and the plates were sealed and incubated at 37° C. without CO2 overnight. The plates were centrifuged for 1 min at 200×g. The resulting fluorescence was measured in a Spectramax plate reader (Molecular Devices) with a 400 nm excitation filter and a 510 nm emission filter.
Potencies were calculated by […] least squares fit to the four parameter logistic IC50 equation.

Assay [2] deals with T1, IDO1. In words: IDO1 Human Whole Blood Assay. The assay is classed as cell-based. Conditions: LPS and IFNγ 100 ng/mL, 18 h, kynurenine by LC/MS/MS. As for the experimental part: IDO1 Human Whole Blood Assay
Compounds to be tested were serially diluted in ten 3-fold steps in DMSO starting from 10 mM. 3 μL of compound dilutions or DMSO alone were then dispensed from the dilution plate into a polypropylene 96-well assay plate containing 97 μL of RPMI medium using an Echo 555 acoustic liquid handler (Labcyte). LPS and IFNγ was prepared in RPMI medium to a 10× of final conc. (1000 ng/mL), final concentration is 100 ng/mL.
Human whole blood was drawn in sodium heparin coated tubes from healthy internal donors. 240 μL of blood was transferred to each of the wells of a v-bottom 96 well plate. 30 μL of compound was transferred from intermediate dilution plate, and incubated for 15 min. 30 μL from stimulants was then transferred to blood and mixed thoroughly. Plate was covered with breathable membrane and incubated at 37° C. for overnight (18 h).
On day 2, isotope labeled standard solutions of kunurenine and tryptophan was made in water at 10× concentration and 30 μL was added to the blood at […] concentration. The assay plates were centrifuged at 300×G for 10 min with no brake to separate plasma from red blood cells. 60 μL of plasma samples was removed without disturbing red blood cells. Plasma was diluted with RPMI in 1:1 ratio and proteins were precipitated out with two volumes of Acetonitrile. The plates were centrifuged at 4000×G for 60 min. 20 μL of supernatant was carefully transferred to a 384 well plate containing 40 μL of 0.1% formic acid in water and analyzed by LC/MS/MS.
LC/MS/MS analyses were performed using Thermo Fisher's LX4-TSQ Quantum Ultra system. This system consists of four Agilent binary high-performance liquid chromatography (HPLC) pumps and a TSQ Quantum Ultra triple quadrupole MS/MS instrument. For each sample, 5 μL were injected onto an Atlantis T3 column (2.1 mm×150 mm, 3 μm particle size) from Waters. The mobile phase gradient pumped at 0.8 mL/min was used to elute the analytes from the column at 25° C. The elution started at 0% B increasing linearly to 25% B at 6.5 min, holding at 25% for 1 min, re-equilibrating to 10 min. Mobile phase A consisted of 0.1% formic acid in water. Mobile phase B consisted of 0.1% of formic acid in acetonitrile. Data was acquired in positive mode using a HESI interface. The operational parameters for the TSQ Quantum Ultra instrument were a spray voltage of 4000 V, capillary temperature of 380° C., vaporizer temperature 400° C., shealth gas 60 arbitrary units, Aux gas 20 arbitrary units, tube lens 85 and collision gas 1.2 mTorr. SRM chromatograms of kynurenine (QI: 209.2>Q3:94.0) and internal standard (QI: 215.3>Q3:98.2) were collected for 90 sec. The peak area was integrated by Xcalibur Quan software. The ratios between the kynurenine generated in the reaction and 2D6-Kynurenine spiked-in internal standard were used to generate percentage inhibition and IC50 values. Compounds were titrated and IC50's were calculated by 4 parameter sigmoidal curve fitting formula.

T1 sequence (P14902 whole entry): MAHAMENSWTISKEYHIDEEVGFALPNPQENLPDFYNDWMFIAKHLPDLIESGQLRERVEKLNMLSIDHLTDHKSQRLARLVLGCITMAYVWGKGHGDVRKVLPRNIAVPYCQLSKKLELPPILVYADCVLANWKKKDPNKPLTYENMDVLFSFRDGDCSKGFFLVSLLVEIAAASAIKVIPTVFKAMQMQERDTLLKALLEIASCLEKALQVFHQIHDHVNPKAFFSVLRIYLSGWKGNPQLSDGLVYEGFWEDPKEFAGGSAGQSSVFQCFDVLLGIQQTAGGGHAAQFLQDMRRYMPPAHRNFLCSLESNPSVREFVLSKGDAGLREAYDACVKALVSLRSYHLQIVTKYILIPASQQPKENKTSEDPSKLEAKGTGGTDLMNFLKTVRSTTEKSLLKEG

In general, IC50 refers to the concentration that inhibits the measured activity by half. For the compound `O=C(Nc1ccc(C2(c3nc4ccccc4[nH]3)CCC2)cn1)c1cccc(Cl)c1` [Ex. 3, N-(5-(1-(1H-benzo[d]imidazol-2-yl)cyclobutyl)pyridin-2-yl)-3-chlorobenzamide], the IC50 at IDO1 [1] is 6.87 nM; at IDO1 [2], 429 nM.
`N#Cc1cccc(C(=O)Nc2ccc(C3(c4nc5ncc(C(F)(F)F)cc5[nH]4)CCC3)nc2)c1` [Ex. 45, 3-Cyano-N-(6-(1-(6-(trifluoromethyl)-1H-imidazo[4,5-b]pyridin-2-yl)cyclobutyl)pyridin-3-yl)benzamide]: the half-inhibitory concentration (IC50) on IDO1 [1] is 4.98 nM; against IDO1 [2] it was 5780 nM.
Consider `O=C(Nc1ccc(C2(c3nc4ccc(Cl)cc4[nH]3)CCC2)cn1)c1cccc(Cl)c1` [Ex. 21, 3-chloro-N-{5-[1-(6-chloro-1H-benzimidazol-2-yl)cyclobutyl]pyridin-2-yl}benzamide], for which the half-inhibitory concentration (IC50) came out at 1.89 nM at IDO1 [1] and 80.9 nM against IDO1 [2].
On the same counts, the results for `N#Cc1cccc(C(=O)Nc2ccc(C3(c4nc5ccccc5[nH]4)CCC3)nc2)c1` [Ex. 46, N-(6-(1-(1H-benzo[d]imidazol-2-yl)cyclobutyl)pyridin-3-yl)-3-cyanobenzamide] are 6.11 nM and 1690 nM.
The like results for `O=C(Nc1ccc(C2(c3nc4ccc(OC(F)F)cc4[nH]3)CCC2)cn1)c1cccc(Cl)c1` [Ex. 23, 3-chloro-N-(5-{1-[6-(difluoromethoxy)-1H-benzimidazol-2-yl]cyclobutyl}pyridin-2-yl)benzamide] were, in that order, 7.67 nM and 1070 nM.
On to `O=C(Nc1ccc(C2(c3nc4ncc(C(F)(F)F)cc4[nH]3)CCC2)cn1)c1cccc(Cl)c1` [Ex. 7, 3-chloro-N-(5-{1-[6-(trifluoromethyl)-1H-imidazo[4,5-b]pyridin-2-yl]cyclobutyl}pyridin-2-yl)benzamide], for which the 50% inhibitory concentration (IC50) is 5.66 nM at IDO1 [1] and 273 nM against IDO1 [2].
Take `N#Cc1cccc(C(=O)Nc2ccc(C3(c4nc5cccc(CCO)c5[nH]4)CCC3)cn2)c1` [Ex. 34, 3-Cyano-N-(5-(1-(7-(2-hydroxyethyl)-1H-benzo[d]imidazol-2-yl)cyclobutyl)pyridin-2-yl)benzamide]: the concentration for half-maximal inhibition (IC50) was 24.8 nM on IDO1 [1] and 3290 nM at IDO1 [2].
In the case of `O=C(O)Cc1cccc2nc(C3(c4ccc(NC(=O)c5cccc(Cl)c5)nc4)CCC3)[nH]c12` [Ex. 33, 2-(2-(1-(6-(3-Chlorobenzamido)pyridin-3-yl)cyclobutyl)-1H-benzo[d]imidazol-7-yl)acetic acid], the half-maximal inhibitory concentration (IC50) at IDO1 [1] worked out at 20.7 nM; against IDO1 [2], 1600 nM.
With `Cc1ccc2nc(C3(c4ccc(NC(=O)c5cccc(Cl)c5)nc4)CCC3)[nH]c2c1C` [Ex. 10, 3-chloro-N-{5-[1-(6,7-dimethyl-1H-benzimidazol-2-yl)cyclobutyl]pyridin-2-yl}benzamide], the figures for the half-inhibitory concentration (IC50) on IDO1 [1] and on IDO1 [2] were 5.23 nM and 501 nM, respectively.
The like results for `N#Cc1cnc2nc(C3(c4ccc(NC(=O)c5cccc(Cl)c5)nc4)CCC3)[nH]c2c1` [Ex. 2, 3-Chloro-N-(5-(1-(6-cyano-1H-imidazo[4,5-b]pyridin-2-yl)cyclobutyl)pyridin-2-yl)benzamide] were, in that order, 13.6 nM and 387 nM.
`O=C(Nc1ccc(C2(c3nc4ccc(C(F)(F)F)cc4[nH]3)CCC2)cn1)c1cccc(Cl)c1` [Ex. 19, 3-chloro-N-(5-{1-[6-(trifluoromethyl)-1H-benzimidazol-2-yl]cyclobutyl}pyridin-2-yl)benzamide]: the 50% inhibitory concentration (IC50) worked out at 2.42 nM at IDO1 [1] and 279 nM at IDO1 [2].
The like results for `O=C(Nc1ccc(C2(c3nc4cccc(CCCO)c4[nH]3)CCC2)cn1)c1cccc(Cl)c1` [Ex. 32, 3-Chloro-N-(5-(1-(7-(3-hydroxypropyl)-1H-benzo[d]imidazol-2-yl)cyclobutyl)pyridin-2-yl)benzamide] were, in that order, 5.4 nM and 446 nM.
The like results for `Cc1cc(Cl)cc2nc(C3(c4ccc(NC(=O)c5cccc(Cl)c5)nc4)CCC3)[nH]c12` [Ex. 9, 3-chloro-N-{5-[1-(5-chloro-7-methyl-1H-benzimidazol-2-yl)cyclobutyl]pyridin-2-yl}benzamide] were, in that order, 5.1 nM and 504 nM.
As to `Cc1cc(C)c2[nH]c(C3(c4ccc(NC(=O)c5cccc(Cl)c5)nc4)CCC3)nc2c1` [Ex. 8, 3-chloro-N-{5-[1-(5,7-dimethyl-1H-benzimidazol-2-yl)cyclobutyl]pyridin-2-yl}benzamide], the IC50 is 4.69 nM on IDO1 [1] and 493 nM on IDO1 [2].
The like results for `O=C(Nc1ccc(C2(c3nc4cccc(F)c4[nH]3)CCC2)cn1)c1cccc(Cl)c1` [Ex. 25, 3-chloro-N-{5-[1-(7-fluoro-1H-benzimidazol-2-yl)cyclobutyl]pyridin-2-yl}benzamide] were, in that order, 7.21 nM and 691 nM.
Turning to `Cc1cc2nc(C3(c4ccc(NC(=O)c5cccc(Cl)c5)nc4)CCC3)[nH]c2cc1F` [Ex. 27, 3-chloro-N-{5-[1-(6-fluoro-5-methyl-1H-benzimidazol-2-yl)cyclobutyl]pyridin-2-yl}benzamide], the half-maximal inhibitory concentration (IC50) came out at 3.47 nM at IDO1 [1] and 496 nM at IDO1 [2].
`N#Cc1cccc(C(=O)Nc2ccc(C3(c4nc5cccc(C(=O)N6CCCC6)c5[nH]4)CCC3)cn2)c1` [Ex. 38, 3-cyano-N-(5-{1-[7-(pyrrolidine-1-carbonyl)-1H-benzimidazol-2-yl]cyclobutyl}pyridin-2-yl)benzamide]: the IC50 at IDO1 [1] was found to be 2.18 nM; against IDO1 [2], 220 nM.
In the case of `O=C(Nc1ccc(C2(c3nc4ncc(Br)cc4[nH]3)CCC2)cn1)c1cccc(Cl)c1` [Ex. 1, N-(5-(1-(6-bromo-1H-imidazo[4,5-b]pyridin-2-yl)cyclobutyl)pyridin-2-yl)-3-chlorobenzamide], the values for the IC50 on IDO1 [1] and against IDO1 [2] were 10.1 nM and 159 nM, respectively.
On the same counts, the results for `O=C(Nc1ccc(C2(c3nc4cc(F)cc(F)c4[nH]3)CCC2)cn1)c1cccc(Cl)c1` [Ex. 17, 3-chloro-N-{5-[1-(5,7-difluoro-1H-benzimidazol-2-yl)cyclobutyl]pyridin-2-yl}benzamide] are 4.9 nM and 829 nM.
On the same counts, the results for `N#Cc1cccc(C(=O)Nc2ccc(C3(c4nc5cc(C#N)ccc5[nH]4)CCC3)cn2)c1` [Ex. 5, 3-Cyano-N-(5-(1-(5-cyano-1H-benzo[d]imidazol-2-yl)cyclobutyl)pyridin-2-yl)benzamide] are 12.5 nM and 864 nM.
With `Cc1ccc2nc(C3(c4ccc(NC(=O)c5cccc(Cl)c5)nc4)CCC3)[nH]c2c1` [Ex. 13, 3-chloro-N-{5-[1-(6-methyl-1H-benzimidazol-2-yl)cyclobutyl]pyridin-2-yl}benzamide], the IC50 was 2.79 nM at IDO1 [1] and 125 nM at IDO1 [2].
The like results for `O=C(Nc1ccc(C2(c3nc4cc(F)c(F)cc4[nH]3)CCC2)cn1)c1cccc(Cl)c1` [Ex. 16, 3-chloro-N-{5-[1-(5,6-difluoro-1H-benzimidazol-2-yl)cyclobutyl]pyridin-2-yl}benzamide] were, in that order, 7.77 nM and 889 nM.

Source of the values: US11103493B2, “Substituted pyridinyl compounds as indoleamine 2,3-dioxygenase (IDO) inhibitors” (Merck Sharp & Dohme Corp., priority 2017, dated 2021).
